Values belong to the molecule of their own block, whether it stands above or below them.
Tests used:
DASH proteases = conditions: WO2013/078059; Narra et al. 2007; cited from earlier work
[1] = system: DPP8/9 over-expressing cells; conditions: cited from earlier work; for selectivity for DPP4 over DPP8 and 9: Huan et al. 2015; for selectivity towards DPP4: Madar et al. 2006, Gilibili et al. 2015
DPP9 = DPP9 (Homo sapiens, UniProt Q86TI2); conditions: Verspohl 2012; Huan et al. 2015; cited from earlier work
DPP8 = DPP8 (Homo sapiens, UniProt Q6V1X1); conditions: Verspohl 2012; Huan et al. 2015; cited from earlier work
mDPP4 = molecular target: T1, mDPP4 (Mus musculus, UniProt P28843); assay: DPP4 processing of recombinant chemokines (SELDI-TOF mass spectrometry); type: biochemical; conditions: 10 nM mDPP4, 30 min at 37° C.
T1 construct: purchased Peprotech
Procedure: Recombinant mDPP4, mCXCL10, mCXCL9, mCXCL11, mCCL2, mCCL3, mCCL4, mCCL5, mCXCL12 and mCCL22 were purchased from Peprotech. For surface-enhanced laser desorption/ionization-[…] (SELDI-TOF) mass spectrometry, chemokines were incubated in the presence or absence of 10 nM of mDPP4 for 30 min at 37° C. The digested product was applied onto an H4 protein chip, following the manufacturer's instructions and analyzed using the PROTEINCHIP™ SYSTEMS SERIES 4000 (Ciphergen). Data were analyzed using CIPHERGENEXPRESS Software.

B16F10 tumors = assay: Flow cytometry of leukocytes infiltrating B16F10 tumors; type: in vivo, mouse; conditions: day 7 B16F10 tumors, 12-14 h after injection
Procedure: B16F10 and M04 (Ovalbumin-expressing B16F10 cells, gift from C. Reis e Sousa) tumor cells were cultured in DMEM (Gibco) supplemented with 10% FCS (PAA), 0.1 mM non-essential amino acids, 1 mM sodium pyruvate, 10 mM Hepes, 70 μM beta-mercaptoethanol and 23 μg/ml gentamycin (all from Gibco). CT26 colon carcinoma cells were cultured in RPMI (Gibco) supplemented as described for DMEM. Cells for injections were passaged 1-2 times after thawing, before use. WT and genetically modified mice were subcutaneously injected with 2×10^5 B16 or 5×10^5 CT26 cells in the shaved right flank. When indicated, mice received an intra-tumoral injection of 1 μg of recombinant mCXCL10, 5 μg CpG-A in DOPTAP or vehicle control. For blocking of chemokine and chemokine receptors, WT mice were intraperitoneally injected with 100 μg of hamster a-mCXCR3 (clone CXCR3-173, BioLegend), 100 μg of hamster α-mCCR5 (clone HM-CCR5, BioLegend), 50 μg of rat anti-mCXCL10 (clone 134013, R&D systems) and 20 μg of rat-α-mCXCR4 (clone 2B11/CXCR4, BD Biosciences) or with respective isotype antibodies (hamster IgG (clone HTK888, BioLegend, used as control for mCXCR3 and mCCR5 blockage); rat IgG2a (clone 54447, R&D systems, used as control for mCXCL10 blockade) and rat IgG2b (clone A95-1, BD Biosciences, used as control for mCXCR4 blockade). Intraperitoneal injection was done one day before and 4, 8 and 12 days after tumor cell injection. For CXCL10 neutralization, antibodies were injected on day 2, 5, 8 and 11 after tumor cell injection. For immunotherapy protocols, mice were intraperitoneally injected with 100 μg of mouse α-CTLA-4 (clone 9D9, Bioxcell), 200 μg of PD1 (clone RMP1-14, Bioxcell), a combination of 100 μg of α-CTLA-4+200 μg of a-PD1 or control isotypes (100 μg […] and 200 μg rat IgG2a (clone 2A3), both from Bioxcell) on day 3, 6 and 9 after tumor cell implantation. For adoptive cell transfer experiments, Pmel-1 Thy-1.1^+Thy-1.1^+, Cxcr3^−/− Thy-1.1^+Thy-1.2^+ Pmel-1 or OT1 splenocytes were activated ex-vivo, by incubation with 1 nM of human gp100 (for Pmel-1 cells) or […] (for OT1 cells) peptides for 1h at room temperature with agitation. Splenocytes were then washed and resuspended in R10 supplemented with 30U/mL of recombinant human IL-2. CD8^+ T cells were expanded for 6-7 days before used. For analysis of tumor infiltrates, activated Cxcr3^+/+ Thy-1.1^+Thy-1.1^+ and Cxcr3^−/− Thy-1.1^+Thy-1.2^+ transgenic Pmel-1 CD8^+ T cells were mixed in a 1:1 ratio (total 1×10^6 cells) and injected intravenously into gender matched tumor-bearing mice (3 days after tumor cell injection). For analysis of tumor growth, activated OT1 cells were injected intravenously (1×10^5 cells per mouse) into gender matched tumor-bearing mice, 3 days after tumor cell injection. Tumor height and width were measured with a caliper and tumor volume was calculated (Elliptical volume=width^2×height×0.523). The model of metastatic melanoma was achieved by intravenous injection of 2×10^5 B16 tumor cells. 15 days after tumor cell injection, lungs were dissected, placed in Fekete's solution and metastatic foci were counted. Lungs with more than 100 metastatic nodules were defined as 100.
Fluorochrome-conjugated anti-mouse CD3 (clone145-2C11), CD8 (clone 53-6.7), CD4 (clone RM4-5), NK1.1 (clone PK136), CD49b (clone DX5), CD25 (clone PC61), B220 (clone RA3-6B2), Ly6G (clone 1A8), Ly6C (clone AL-21), CD11 b (clone M1/70) Siglec-F (clone E50-2440), MHCII IA-IE (clone M5/114.15.2), CD45.2 (clones 56-0454-82 and 109830), Thy-1.1 (clone HIS51), Thy-1.2 (clone 53-2.1), DPP4 (clone H194-112) and CXCR3 (clone CXCR3-173) were from eBiosciences and BD Biosciences. Fluorochrome conjugated anti-F4/80 (clone CI:A3-1) was from AbDserotec. For exclusion of dead cells, Live/Dead fixable Aqua reagent (Invitrogen) was used. For all staining protocols, cell suspensions were incubated with mouse CD16/CD32 Fc Blocking antibodies (BD Biosciences) prior to antibody. […]

CXCR3-expressing T cells = assay: Model of trafficking into the peritoneal cavity; type: in vivo, mouse; conditions: 1 μg chemokine intraperitoneally
Procedure: WT and Dpp4^−/− mice were intraperitoneally injected with PBS or 1 μg of mCXCL10, mCXCL9 or mCCL5 (all from Peprotech). At the indicated time points, mice were sacrificed and peritoneal cells were collected in 10 mL of PBS. For thioglycollate induced peritonitis mice were intraperitoneally injected with thioglycollate 3% weight/volume, 24 hours before collection of peritoneal cells.
Fluorochrome-conjugated anti-mouse CD3 (clone145-2C11), CD8 (clone 53-6.7), CD4 (clone RM4-5), NK1.1 (clone PK136), CD49b (clone DX5), CD25 (clone PC61), B220 (clone RA3-6B2), Ly6G (clone 1A8), Ly6C (clone AL-21), CD11 b (clone M1/70) Siglec-F (clone E50-2440), MHCII IA-IE (clone M5/114.15.2), CD45.2 (clones 56-0454-82 and 109830), Thy-1.1 (clone HIS51), Thy-1.2 (clone 53-2.1), DPP4 (clone H194-112) and CXCR3 (clone CXCR3-173) were from eBiosciences and BD Biosciences. Fluorochrome conjugated anti-F4/80 (clone CI:A3-1) was from AbDserotec. For exclusion of dead cells, Live/Dead fixable Aqua reagent (Invitrogen) was used. For all staining protocols, cell suspensions were incubated with mouse CD16/CD32 Fc Blocking antibodies (BD Biosciences) prior to antibody. For analysis of peritoneal cavity infiltrates, cells were washed and incubated with a cocktail of fluorochrome-conjugated antibodies. For analysis of tumor infiltrates, B16F10 tumors were collected at the indicated time points and digested in PBS supplemented with 2.7 mg/ml of Collagenase (Roche) and 23U/ml of Deoxyribonuclease I (Invitrogen) for 30 min, 37° C. Digestion was terminated by adding PBS supplemented with 2% FCS and 5 mM EDTA (Gibco). Tumor cell suspensions were obtained after filtration over a 70 μm cell strainer. For determination of cell numbers, the […] COUNTING BEADS reagent (Invitrogen) was used. Flow cytometry was performed using a BD LSRFORTESSA or a BD CANTO cytometer, with DIVA software. Computer analysis was done with FLOWJO (Treestar).

T1 sequence (P28843 whole entry): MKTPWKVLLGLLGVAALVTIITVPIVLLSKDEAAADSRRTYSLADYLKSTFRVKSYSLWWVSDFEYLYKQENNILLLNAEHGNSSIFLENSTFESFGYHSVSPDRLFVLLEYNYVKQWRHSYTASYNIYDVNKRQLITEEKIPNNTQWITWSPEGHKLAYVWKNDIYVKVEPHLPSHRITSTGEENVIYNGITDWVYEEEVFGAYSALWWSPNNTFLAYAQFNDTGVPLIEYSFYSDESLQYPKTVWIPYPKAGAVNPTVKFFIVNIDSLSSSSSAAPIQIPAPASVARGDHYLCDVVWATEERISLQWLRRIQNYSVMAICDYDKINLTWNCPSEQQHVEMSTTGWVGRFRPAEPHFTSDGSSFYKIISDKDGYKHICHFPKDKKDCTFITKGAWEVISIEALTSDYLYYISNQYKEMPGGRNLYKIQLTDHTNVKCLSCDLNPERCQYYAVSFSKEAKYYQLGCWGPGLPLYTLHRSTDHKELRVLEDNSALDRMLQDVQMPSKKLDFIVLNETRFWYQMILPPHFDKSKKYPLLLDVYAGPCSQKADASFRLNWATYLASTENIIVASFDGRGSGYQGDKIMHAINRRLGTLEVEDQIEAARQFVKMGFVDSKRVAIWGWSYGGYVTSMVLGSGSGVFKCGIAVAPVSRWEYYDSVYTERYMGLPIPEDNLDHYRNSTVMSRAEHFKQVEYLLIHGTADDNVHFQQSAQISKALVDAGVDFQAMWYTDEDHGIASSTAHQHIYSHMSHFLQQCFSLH
Sequence of DPP9 (Q86TI2 whole entry, species assumed): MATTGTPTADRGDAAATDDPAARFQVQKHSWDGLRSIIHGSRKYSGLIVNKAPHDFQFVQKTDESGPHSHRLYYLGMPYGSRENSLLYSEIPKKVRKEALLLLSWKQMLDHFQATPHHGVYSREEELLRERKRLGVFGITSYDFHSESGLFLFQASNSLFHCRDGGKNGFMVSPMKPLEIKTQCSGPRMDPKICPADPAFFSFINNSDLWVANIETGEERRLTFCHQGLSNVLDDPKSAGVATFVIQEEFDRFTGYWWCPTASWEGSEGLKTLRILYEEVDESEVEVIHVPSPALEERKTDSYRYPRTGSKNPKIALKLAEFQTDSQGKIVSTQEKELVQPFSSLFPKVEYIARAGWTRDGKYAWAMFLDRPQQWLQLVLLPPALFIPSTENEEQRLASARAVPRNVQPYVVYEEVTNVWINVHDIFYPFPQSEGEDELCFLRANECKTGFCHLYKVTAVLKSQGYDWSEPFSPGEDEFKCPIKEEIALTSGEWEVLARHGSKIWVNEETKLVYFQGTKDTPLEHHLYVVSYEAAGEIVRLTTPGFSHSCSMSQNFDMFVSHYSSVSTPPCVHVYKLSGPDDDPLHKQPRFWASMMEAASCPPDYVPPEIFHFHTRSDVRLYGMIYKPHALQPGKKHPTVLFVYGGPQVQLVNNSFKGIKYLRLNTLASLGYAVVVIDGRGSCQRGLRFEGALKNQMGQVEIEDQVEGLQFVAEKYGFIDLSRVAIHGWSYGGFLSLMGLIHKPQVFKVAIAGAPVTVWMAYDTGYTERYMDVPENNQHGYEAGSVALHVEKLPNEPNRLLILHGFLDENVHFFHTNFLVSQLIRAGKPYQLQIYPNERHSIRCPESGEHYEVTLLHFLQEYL
Sequence of DPP8 (Q6V1X1 whole entry, species assumed): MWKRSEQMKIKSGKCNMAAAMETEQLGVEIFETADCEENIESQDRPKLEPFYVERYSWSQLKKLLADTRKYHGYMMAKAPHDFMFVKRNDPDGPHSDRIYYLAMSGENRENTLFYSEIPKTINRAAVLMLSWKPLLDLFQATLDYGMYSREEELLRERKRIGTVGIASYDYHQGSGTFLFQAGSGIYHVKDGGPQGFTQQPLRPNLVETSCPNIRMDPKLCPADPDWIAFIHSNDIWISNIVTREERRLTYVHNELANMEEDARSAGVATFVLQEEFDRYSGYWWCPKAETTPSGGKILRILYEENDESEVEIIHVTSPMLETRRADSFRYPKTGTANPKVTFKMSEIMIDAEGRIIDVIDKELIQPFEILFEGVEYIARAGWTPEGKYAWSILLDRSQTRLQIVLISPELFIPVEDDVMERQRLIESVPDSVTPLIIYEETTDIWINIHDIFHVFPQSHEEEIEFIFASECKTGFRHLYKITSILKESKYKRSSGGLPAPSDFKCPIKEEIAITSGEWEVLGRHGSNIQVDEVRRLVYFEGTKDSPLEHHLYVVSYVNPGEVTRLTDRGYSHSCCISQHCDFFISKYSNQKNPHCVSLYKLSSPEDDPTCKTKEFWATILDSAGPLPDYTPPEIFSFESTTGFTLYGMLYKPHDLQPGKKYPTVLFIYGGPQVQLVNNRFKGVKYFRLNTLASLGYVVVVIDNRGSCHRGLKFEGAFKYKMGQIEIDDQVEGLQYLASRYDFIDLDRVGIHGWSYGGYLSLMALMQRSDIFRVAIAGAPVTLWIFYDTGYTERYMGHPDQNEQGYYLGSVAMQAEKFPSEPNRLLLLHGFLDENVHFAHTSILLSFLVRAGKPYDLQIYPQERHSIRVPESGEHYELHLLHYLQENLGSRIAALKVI

Molecule: CC(C)(C)[C@H](N)C(=O)N1CCC[C@H]1B(O)O [ARI-4175]
inhibition of DASH proteases (DASH proteases): inhibiting a multitude of DASH proteases

Molecule: CC(C)[C@H](N)C(=O)N1CCC[C@H]1B(O)O [Val-boroPro]
inhibition of DASH proteases (DASH proteases): inhibiting a multitude of DASH proteases

Molecule: C#C[C@H]1CC[C@@H](C#N)N1C(=O)CNC1(C)CCN(c2cc(C(=O)O)ccn2)CC1 [ABT-279]
selectivity for DPP4 over DPP8 and 9 [1]: highly-selective inhibitors of DPP4
selectivity towards DPP4 [1]: highly selective towards DPP4

Molecule: N#C[C@@H]1C[C@H](F)CN1C(=O)[C@@H](N)C(c1ccc(F)cc1)c1ccc(F)cc1 [denagliptin]
selectivity for DPP4 over DPP8 and 9 [1]: highly-selective inhibitors of DPP4
selectivity towards DPP4 [1]: highly selective towards DPP4

Molecule: COc1cc2c(cc1OC)[C@@H]1C[C@H](N)[C@@H](N3C[C@@H](CF)CC3=O)CN1CC2 [carmegliptin]
selectivity for DPP4 over DPP8 and 9 [1]: highly-selective inhibitors of DPP4
selectivity towards DPP4 [1]: highly selective towards DPP4

Molecule: Cn1c(=O)cc(N2CCC[C@@H](N)C2)n(Cc2ccccc2C#N)c1=O [alogliptin]
effect on DPP9 activity (DPP9): no effect
effect on DPP8 activity (DPP8): no effect

susceptibility to DPP4 N-terminal truncation (mDPP4): in vitro cleavage
Molecule: mCXCL12: recombinant mouse chemokine (Peprotech)

susceptibility to DPP4 N-terminal truncation (mDPP4): in vitro cleavage
Molecule: mCCL2: recombinant mouse chemokine (Peprotech)

Molecule: N[C@H]1CC(C(=O)N2CCn3c(nnc3C(F)(F)F)C2)=CC[C@@H]1c1cc(F)c(F)cc1F [ABT-341]
selectivity for DPP4 over DPP8 and 9 [1]: highly-selective inhibitors of DPP4
selectivity towards DPP4 [1]: highly selective towards DPP4

susceptibility to DPP4 N-terminal truncation (mDPP4): in vitro cleavage
B1: mCCL22: recombinant mouse chemokine (Peprotech) (protein, UniProt O88430 25-92, looked up)
C-C motif chemokine 22: GPYGANVEDSICCQDYIRHPLPSRLVKEFFWTSKSCRKPGVVLITVKNRDICADPRQVWVKKLLHKLS

susceptibility to DPP4 N-terminal truncation (mDPP4): sensitive to DPP4 N-terminal truncation
B2: mCXCL10: recombinant full length mouse CXCL10 (Peprotech) (protein, UniProt P17515 22-98, looked up)
C-X-C motif chemokine 10: IPLARTVRCNCIHIDDGPVRMRAIGKLEIIPASLSCPRVEIIATMKKNDEQRCLNPESKTIKNLMKAFSQKRSKRAP
lymphocyte recruitment into the tumor parenchyma after intratumoral mCXCL10 (B16F10 tumors): no increase in lymphocyte migration
infiltration of CXCR3-expressing T cells into the peritoneal cavity in control mice (CXCR3-expressing T cells; control chow): failed to induce significant infiltration of CXCR3-expressing T cells

susceptibility to DPP4 N-terminal truncation (mDPP4): in vitro cleavage
B3: mCCL3: recombinant mouse chemokine (Peprotech) (protein, UniProt P10855 24-92, looked up)
C-C motif chemokine 3: APYGADTPTACCFSYSRKIPRQFIVDYFETSSLCSQPGVIFLTKRNRQICADSKETWVQEYITDLELNA

susceptibility to DPP4 N-terminal truncation (mDPP4): insensitive to DPP4-mediated truncation
B4: mCXCL9: recombinant mouse chemokine (Peprotech) (protein, UniProt P18340 22-126, looked up)
C-X-C motif chemokine 9: TLVIRNARCSCISTSRGTIHYKSLKDLKQFAPSPNCNKTEIIATLKNGDQTCLDPDSANVKKLMKEWEKKISQKKKQKRGKKHQKNMKNRKPKTPQSRRRSRKTT
chemokine-induced leukocyte migration into the peritoneal cavity (CXCR3-expressing T cells; WT and Dpp4-/- mice, 6 h): migration of NK cells into the peritoneal cavity

susceptibility to DPP4 N-terminal truncation (mDPP4): in vitro cleavage
B5: mCCL4: recombinant mouse chemokine (Peprotech) (protein, UniProt P14097 24-92, looked up)
C-C motif chemokine 4: APMGSDPPTSCCFSYTSRQLHRSFVMDYYETSSLCSKPAVVFLTKRGRQICANPSEPWVTEYMSDLELN

— patent publication US11883398B2, “Dipeptidylpeptidase 4 inhibition enhances lymphocyte trafficking, improving both naturally occurring tumor immunity and immunotherapy” (INSTITUT PASTEUR, priority 2015, dated 2024)
